# Results: article PMC8286831, “Identifying SARS-CoV-2 antiviral compounds by screening for small molecule inhibitors of nsp13 helicase” (Biochemical Journal, 2021)
# Read-outs that look alike come from different tables or passages of the source.
# Assays:
# [1] = biological target: SARS-CoV-2 nsp13 helicase (Severe acute respiratory syndrome coronavirus 2, UniProt P0DTD1); test: biochemical; type: biochemical; details: for nsp13 inhibition and detergent sensitivity: presence or absence of non-ionic detergent
# [2] = biological target: T1, SARS-CoV-2 RdRp holoenzyme (Severe acute respiratory syndrome coronavirus 2, UniProt P0DTD1); test: FRET-based RdRp strand displacement assay; type: biochemical
# T1 construct: (Sf nsp12-3F/7L8 preincubated with Sf 7H8 at a 1:3 ratio); 3F (3xFlag) (C); made in house; host or cells: 'Sf', read as Spodoptera frugiperda insect cells (my inference from the prefix); details are in Bertolin et al
# [3] = IC50 0.02% Tween-20 + (presence)
# [4] = IC50 0.02% Tween-20 − (absence)
# [5] = RNA (nsp13 substrate), 0.3 mM ATP, 0.02% Tween-20 in RdRp assay buffer, read-out: IC50 nsp13
# [6] = RNA (RdRp substrate), 0.3 mM each NTP, 0.02% Tween-20 in RdRp assay buffer, read-out: IC50 RdRp
# [7] = RNA (nsp13 substrate), 0.3 mM ATP, 0.02% Tween-20 in RdRp assay buffer
# [8] = RNA (RdRp substrate), 0.3 mM each NTP, 0.02% Tween-20 in RdRp assay buffer
# [9] = read-out: IC50 + 0.02% Tween-20
compound,measurement,setting,value
CC(C)(Sc1ccc(CCN(CCCCC2CCCCC2)C(=O)NC2CCCCC2)cc1)C(=O)O [GW7647],IC50,[1]; [3],25 µM
same,IC50,[1]; [4],2.3 µM
same,IC50,[1]; IC50 + 0.02% Tween-20,27 µM
same,IC50,[1]; IC50 No detergent,5.9 µM
same,IC50,[1]; [5],39 µM
same,IC50,[2]; [6],32 µM
Cc1cc2c(C(C)C)c(O)c(O)c(C=O)c2c(O)c1-c1c(C)cc2c(C(C)C)c(O)c(O)c(C=O)c2c1O [Gossypol],IC50,[1]; [3],31 µM
same,IC50,[1]; [4],1.3 µM
same,IC50,[1]; IC50 + 0.02% Tween-20,30 µM
same,IC50,[1]; IC50 No detergent,1.9 µM
same,IC50,[1]; [5],26 µM
same,IC50,[2],17 µM
COc1c2c3c4c(c(OC)c(=O)c5c(O)cc(OC)c(c6c(OC)cc(O)c(c1=O)c63)c54)[C@@H](C(C)=O)[C@@](C)(O)C2 [Hypocrellin A],IC50,[1]; IC50 + 0.02% Tween-20,> 250 µM
same,IC50,[1]; IC50 No detergent,12 µM
same,nsp13 inhibition and detergent sensitivity,[1],clear inhibition only in the absence of detergent
COc1cc(C(=O)O)ccc1NC(=O)[C@@H]1N[C@@H](CC(C)(C)C)[C@](C#N)(c2ccc(Cl)cc2F)[C@H]1c1cccc(Cl)c1F [Idasanutlin],IC50,[1]; [3],11 µM
same,IC50,[1]; [4],2.3 µM
same,IC50,[1]; [5],19 µM
same,IC50,[2]; [6],36 µM
Nc1nc2c(c(=O)[nH]1)N(C=O)C(CNc1ccc(C(=O)N[C@@H](CCC(=O)O)C(=O)O)cc1)CN2 (some centres unmarked) [Leucovorin Calcium],IC50,[1]; IC50 + 0.02% Tween-20,> 250 µM
same,IC50,[1]; IC50 No detergent,> 250 µM
same,IC50 nsp13,[1]; [7],No inhibition
same,IC50 RdRp,[2]; [8],No inhibition
CS(=O)(=O)c1cccc(C[C@H](NC(=O)c2c(Cl)cc3c(c2Cl)CCN(C(=O)c2ccc4ccoc4c2)C3)C(=O)O)c1 [Lifitegrast],IC50 + 0.02% Tween-20,[1],No inhibition
same,IC50 No detergent,[1],No inhibition
"Cc1ccc(F)c(NC(=O)Nc2ccc(-c3cccc4[nH]nc(N)c34)cc2)c1 [Linifanib/ABT-869, Linifanib]",IC50,[1]; IC50 + 0.02% Tween-20,230 µM
same,IC50,[1]; IC50 No detergent,26 µM
same,IC50 nsp13,[1]; [7],No inhibition
same,IC50 RdRp,[2]; [8],No inhibition
CCCCC/C=C\C/C=C\CCCCCCCC(=O)O [Linoleic acid],IC50,[1]; [3],36 µM
same,IC50,[1]; [4],4.3 µM
same,IC50,[1]; IC50 + 0.02% Tween-20,38 µM
same,IC50,[1]; IC50 No detergent,11 µM
same,IC50 nsp13,[1]; [7],No inhibition
same,nsp13 inhibition and detergent sensitivity,[1],strong sensitivity to detergents
same,IC50 RdRp,[2]; [8],No inhibition
O=C1c2c(O)ccc(O)c2C(=O)c2c(NCCNCCO)ccc(NCCNCCO)c21 [Mitoxantrone],IC50 + 0.02% Tween-20,[1],Quenching
same,IC50 No detergent,[1],Quenching
CC1(C)CCC(c2ccc(Cl)cc2)=C(CN2CCN(c3ccc(C(=O)NS(=O)(=O)c4ccc(N[C@H](CCN5CCOCC5)CSc5ccccc5)c(S(=O)(=O)C(F)(F)F)c4)cc3)CC2)C1 [Navitoclax],IC50,[1]; [3],> 250 µM
same,IC50,[1]; [4],0.74 µM
same,IC50,[1]; IC50 + 0.01% Triton X-100,7.3 µM
same,IC50,[1]; IC50 + 0.02% Tween-20,> 250 µM
same,IC50,[1]; IC50 -Triton X-100,2.2 µM
same,IC50,[1]; IC50 No detergent,1.2 µM
same,IC50,[1]; [5],> 100 µM
same,nsp13 inhibition and detergent sensitivity,[1],strong sensitivity to detergents
same,IC50,[2]; [6],92 µM
CCCc1c2oc(C(=O)O)cc(=O)c2cc2c(=O)cc(C(=O)O)n(CC)c12 [Nedocromil],IC50 + 0.02% Tween-20,[1],No inhibition
same,IC50 No detergent,[1],No inhibition
CCCCCCCC/C=C\CCCCCCCC(=O)O [Oleic acid],IC50,[1]; [3],117 µM
same,IC50,[1]; [4],14 µM
same,IC50,[1]; IC50 + 0.02% Tween-20,58 µM
same,IC50,[1]; IC50 No detergent,6.8 µM
same,IC50 nsp13,[1]; [7],No inhibition
same,IC50 RdRp,[2]; [8],No inhibition
O=C(N[C@H]1CCS[C@H]2CCC[C@@H](C(=O)O)N2C1=O)[C@@H](S)Cc1ccccc1 [Omapatrilat],IC50 + 0.02% Tween-20,[1],No inhibition
same,IC50,[1]; IC50 No detergent,> 250 µM
COc1cc(C(N)=O)ccc1NC(=O)[C@@H]1N[C@@H](CC(C)(C)C)[C@@]2(C(=O)Nc3cc(Cl)ccc32)[C@H]1c1cccc(Cl)c1F [RO8994],IC50 nsp13,[1],No inhibition
same,IC50,[1]; [9],> 250 µM
same,IC50,[1]; read-out: IC50 No detergent,2.9 µM
same,IC50 RdRp,[2]; [8],No inhibition
COc1cccc(NC(=O)/C=C/c2ccc(Cl)cc2)c1 [SB-366791],IC50 nsp13,[1]; [7],No inhibition
same,IC50,[1]; [9],> 250 µM
same,IC50,[1]; read-out: IC50 No detergent,> 250 µM
same,IC50 RdRp,[2]; [8],No inhibition
CN1Cc2sccc2C(c2ccc(O)c(O)c2)C1 (centres unmarked) [SKF 89145],IC50 + 0.02% Tween-20,[1],No inhibition
same,IC50 No detergent,[1],No inhibition
"Cc1cc(OCCCS(C)(=O)=O)cc(C)c1-c1cccc(COc2ccc3c(c2)OC[C@H]3CC(=O)O)c1 [TAK875, Fasiglifam]",IC50,[1]; IC50 + 0.02% Tween-20,72 µM
same,IC50,[1]; IC50 No detergent,19 µM
same,nsp13 inhibition and detergent sensitivity,[1],clear inhibition only in the absence of detergent
O=C1CC(=O)c2c(Cl)c(Cl)c(Cl)c(Cl)c21 [TCID],IC50,[1]; read-out: IC50 0.02% Tween-20 + (presence),15 µM
same,IC50,[1]; read-out: IC50 0.02% Tween-20 − (absence),1.9 µM
same,IC50,[1]; [9],24 µM
same,IC50,[1]; read-out: IC50 No detergent,8.1 µM
same,IC50,[1]; read-out: IC50 nsp13,21 µM
same,IC50,[2]; [6],35 µM
CC(C)c1ccccc1Cc1cc(C(=O)Nc2ccc(S(=O)(=O)c3ccccc3C(C)(C)C)cc2)c(O)c(O)c1O [TW-37],IC50,[1]; [9],109 µM
same,IC50,[1]; read-out: IC50 No detergent,2.8 µM
same,IC50,[1]; read-out: IC50 nsp13,39 µM
same,IC50,[2]; [6],27 µM
